Data from patent publication US20220305003A1, “METHODS OF TREATING CANCER WITH AN INHIBITOR OF ZNF827” (CHILDREN'S MEDICAL RESEARCH INSTITUTE, priority 2019, published 2022).

Assays:
[1] = tested on: panel of 660 cell lines; assay: Drug sensitivity (Sanger GDSC IC50) versus ZNF827 gene expression; type: cell-based; details: natural log of the IC50 from Sanger GDSC v17.3; low log2(TPM) <1 vs normal; Nemenyi test, adjusted p-value<0.05
Experimental: ZNF827 gene expression for the 660 cell lines was plotted on a histogram and grouped by gene expression level, represented as log2(TPM), into “low” (<1), “normal” (>1, <5) and “high” (>5). […] The Nemenyi statistical test was used to test for significant differences between “low” and “normal” ZNF827 expression groups for drug sensitivity for each compound. P-values were then corrected for multiple testing using FDR correction. […] All statistical analysis was performed in R (version 3.6.0), using the “stats” (version 3.6.0) and “PMCMR” (version 4.3) libraries.

[2] = tested on: ATR-CHK1 pathway; assay: Western blot of ATR downstream effectors (p-CHK1 S345, p-RPA2 S33, pCHK2); type: cell-based; details: U-2 OS; agent alone (topotecan 2 μg/mL 24 hours, aphidicolin 1 μM 20 hours, or siRNA knockdown in unchallenged cells)
Experimental: Protein was extracted from 10^6 cells per sample by vigorous pipetting and incubation at room temperature for 30 minutes in 100 μL of EDTA-free 4× LDS buffer (106 mM Tris-Cl, 141 mM Tris-Base, 40% Glycerol, 2% LDS, 0.075% SERVA Blue G50) supplemented with 2.5% Benzonase® nuclease 25 U/μL (Novagen, Merck Millipore) and 2% beta-mercaptoethanol (Sigma). Following protein extraction, all samples were denatured at 90° C. for 15 minutes before resolving on NuPAGE® Novex® 4-12% Bis-Tris Mini Gels (Invitrogen) with 1×10^5 cells (10 μL) loaded per lane in NuPAGE® MES SDS running buffer (Invitrogen) at 200 V for 50 minutes. Gels were transferred onto a PVDF membrane (Immobilon-P, Millipore) in transfer buffer (190 mM glycine, 25 mM Tris and 10% methanol) at 100 V for 60 minutes. Membranes were stained with Ponceau-S for 30 minutes, de-stained then blocked for 1 hour at room temperature in 5% skim milk dissolved in PBS with 0.1% Tween-20 (PBST) or TBS with 0.1% Tween-20 (TBST) for phosphorylated proteins. Membranes were cut into appropriate segments based on the size markers, with each segment incubated with antibodies for proteins of interest diluted in 0.5% skim milk in PBST/TBST or 5% BSA overnight at 4° C. (Refer to Table 4 for the list of antibodies). Blots were then washed for 3×5 minutes in PBST/TBST followed by incubation for 1 hour at room temperature with appropriate secondary antibodies (See Table 5) diluted 1:5000 in 0.5% skim milk or 5% BSA in PBST/TBST. Blots were washed for 3×5 minutes in PBST/TBST before incubation with SuperSignal West Pico Chemiluminescent Substrate (ThermoFisher Scientific) for 5 minutes at room temperature. Blots were then exposed to a Luminescent Image Analyser (LAS-4000, Fujifilm).
To investigate the precise function of ZNF827 in the ATR pathway, the effect of ZNF827 depletion on the downstream effectors of ATR was examined. To activate ATR, U-2 OS cells were treated with DNA damage and replication stress inducing agents topotecan 2 μg/mL for 24 hours or aphidicolin 1 μM for 20 hours. […] Phosphorylation of CHK2 was not affected by ZNF827 depletion, further supporting that the role of ZNF827 in DNA damage and repair is independent of ATM (FIG. 6d).

Row | Compound | drug sensitivity in cell lines with low ZNF827 compared to cell lines with normal ZNF827 expression [1] | phosphorylation of CHK1 S345 [2]
1 | O=c1[nH]c2ccccc2n1C1CCN(Cc2ccc(-c3nc4cc5[nH]cnc5cc4nc3-c3ccccc3)cc2)CC1 [AKT inhibitor VIII] | Increased sensitivity | 
2 | Cc1ccc(NC(=O)c2cccc(C(C)(C)C#N)c2)cc1Nc1ccc2ncn(C)c(=O)c2c1 [AZ628] | Increased sensitivity | 
3 | C=C(c1ccc(C(=O)O)cc1)c1cc2c(cc1C)C(C)(C)CCC2(C)C [Bexarotene] | Increased sensitivity | 
4 | O=C(NOCC1CC1)c1ccc(F)c(F)c1Nc1ccc(I)cc1Cl [CI-1040] | Increased sensitivity | 
5 | Cc1ccc(-c2c(C(=O)CF)n(CCCO)c3ncnc(N)c23)cc1 [FMK] | Increased sensitivity | 
6 | Nc1[nH]nc2nnc(-c3c(-c4ccccc4)nn4ccccc34)cc12 [FR-180204] | Increased sensitivity | 
7 | Cn1cc(/C=C2\C(=O)Nc3cccnc32)c2ccccc21 [GW441756] | Increased sensitivity | 
8 | CCNC(=O)C[C@@H]1N=C(c2ccc(Cl)cc2)c2cc(OC)ccc2-n2c(C)nnc21 [I-BET-762] | Increased sensitivity | 
9 | Cc1ccc(NC(=O)c2ccc(CN3CCN(C)CC3)cc2)cc1Nc1nccc(-c2cccnc2)n1 [Imatinib] | Increased sensitivity | 
10 | O=C(N[C@@H](COc1ccc2[nH]c(=O)[nH]c2c1)c1ccccc1)c1cccn(Cc2ccc(F)c(F)c2)c1=O [KIN001-244] | Increased sensitivity | 
11 | COc1cc(C(=O)NC2CCN(C)CC2)ccc1Nc1ncc2c(n1)N(C1CCCC1)C(C)CC(=O)N2C (centres unmarked) [NPK76-II-72-1] | Increased sensitivity | 
12 | Cc1ccc(C(=O)Nc2cccc(C(F)(F)F)c2)cc1Nc1nc(-c2cccnc2)nc2c1cnn2C [NVP-BHG712] | Increased sensitivity | 
13 | Cc1cn(-c2cc(NC(=O)c3ccc(C)c(Nc4nccc(-c5cccnc5)n4)c3)cc(C(F)(F)F)c2)cn1 [Nilotinib] | Increased sensitivity | 
14 | O=C(Nc1ccc(OC(F)(F)F)cc1)c1sccc1NCc1ccnc2ccccc12 [OSI-930] | Increased sensitivity | 
15 | O=C(NOC[C@H](O)CO)c1ccc(F)c(F)c1Nc1ccc(I)cc1F [PD0325901] | Increased sensitivity | 
16 | [H]/N=C(/N)N/C(=N/[H])NCCc1ccccc1 [Phenformin] | Increased sensitivity | 

Row | Compound | drug sensitivity in cell lines with low ZNF827 compared to cell lines with normal ZNF827 expression [1] | phosphorylation of CHK1 S345 [2]
17 | CC1(C)CC(=O)c2c(C(F)(F)F)nn(-c3ccc(C(N)=O)c(N[C@H]4CC[C@H](O)CC4)c3)c2C1 [SNX-2112] | Increased sensitivity | 
18 | CCN(CC)CCNC(=O)c1c(C)[nH]c(/C=C2\C(=O)Nc3ccc(F)cc32)c1C.O=C(O)C[C@H](O)C(=O)O [Sunitib] | Increased sensitivity | 
19 | O=S(=O)(c1ccccc1)N(CC(F)(F)F)c1ccc(C(O)(C(F)(F)F)C(F)(F)F)cc1 [T0901317] | Increased sensitivity | 
20 | CCc1nc(-c2cccc(C)c2)c(-c2ccnc(NC(=O)c3ccccc3)c2)s1 [TAK-715] | Increased sensitivity | 
21 | CN(C)C/C=C/C(=O)Nc1ccc(C(=O)Nc2cccc(Nc3ncc(Cl)c(-c4c[nH]c5ccccc45)n3)c2)cc1 [THZ-2-102-1] | Increased sensitivity | 
22 | CC/C(=C(\c1ccccc1)c1ccc(OCCN(C)C)cc1)c1ccccc1 [Tamoxifen] | Increased sensitivity | 
23 | CC1=C(/C=C/C(C)=C/C=C/C(C)=C/C(=O)O)C(C)(C)CCC1 [Tretinoin] | Increased sensitivity | 
24 | CCCC(=O)OCc1ccc(OC(=O)/C=C(C)/C=C/C=C(C)/C=C/C2=C(C)CCCC2(C)C)cc1 [VNLG-124] | Increased sensitivity | 
25 | NC(=O)c1ccc(N(C(N)=O)c2c(F)cccc2F)nc1-c1ccc(F)cc1F [VX-702] | Increased sensitivity | 
26 | O=C(CCCCCCC(=O)Nc1ccccc1)NO [Vorinostat] | Increased sensitivity | 
27 | C[C@@]1(CO)[C@H](O)CC[C@@]2(C)[C@H]1CC[C@H]1C[C@@H]3C[C@@]12CC[C@]3(O)CO [aphidicolin] |  | became phosphorylated at S345
28 | KIN001-236 | Increased sensitivity | 
29 | KIN001-260 | Increased sensitivity | 
30 | THZ-2-49 | Increased sensitivity | 
31 | TL-1-85 | Increased sensitivity | 
32 | TL-2-105 | Increased sensitivity | 
